TGI and GI50 data for 13 compounds are collected here from PubChem BioAssay (NCI).

Among the test systems are SN12C renal; NCI-H522 lung; UACC-62 melanoma; KM12 colon; SK-MEL-2 melanoma; LOX IMVI melanoma; LXFL 529 NSCLC; A549 NSCLC; DMS 273 small cell lung; HS 578T breast.
Common to all, as to assay: NCI tumour cell line growth inhibition, 48 h

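Compound exposure: 48 hours, 5 concentrations, 96-well plates. GI50: concentration for 50% inhibition of growth. TGI marks complete inhibition of growth.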

As to `CC(=O)O[C@H]1C(=O)[C@@]2(C)C(C(OC(=O)c3ccccc3)[C@]3(O)CC(OC(=O)C(O)C(NC(=O)c4ccccc4)c4ccc(C)cc4)C(C)=C1C3(C)C)[C@]1(OC(C)=O)CO[C@@H]1C[C@@H]2O` (some centres not stated), the TGI in the experiment on SN12C renal is > 25 µM; with NCI-H522 lung, 0.0396 µM; in the experiment with UACC-62 melanoma it was 6.51 µM; with KM12 colon, 9.9 µM; in the experiment with SK-MEL-2 melanoma it was 0.121 µM; in the experiment with LOX IMVI melanoma, 6.75 µM. The TGI stood at 11.1 µM in the experiment on LXFL 529 NSCLC, 21.5 µM in the experiment with A549 NSCLC and 2.89 µM in the experiment with DMS 273 small cell lung.

`COc1cc2c3c(c1OC)Oc1ccc(cc1)CC1c4c(cc(OC)c(OC)c4Oc4ccc(cc4)CC3N(C)CC2)CCN1C` (configuration not stated): the TGI in the experiment on SN12C renal was 49.7 µM; in the experiment on NCI-H522 lung it was 25.8 µM; in the experiment with UACC-62 melanoma it was 34.9 µM; in the experiment with KM12 colon, > 100 µM; with SK-MEL-2 melanoma, 50.6 µM; in the experiment on LOX IMVI melanoma it was 34.9 µM. The TGI was 39.6 µM in the experiment on LXFL 529 NSCLC, 70.4 µM with A549 NSCLC and 37.2 µM with DMS 273 small cell lung.

Take `CCOC(=O)NC(=O)c1cn(C2OC(CO)C(O)C2O)c(=O)[nH]c1=O` (configuration not stated): the TGI in the experiment on SN12C renal, in the experiment with NCI-H522 lung, in the experiment on UACC-62 melanoma, with KM12 colon, in the experiment on SK-MEL-2 melanoma and in the experiment with LOX IMVI melanoma was > 100 µM each time. For the same compound, the TGI with LXFL 529 NSCLC, in the experiment with A549 NSCLC and in the experiment on DMS 273 small cell lung was > 100 µM each time.

For `COc1cccc2ccc3c(c12)C(=O)OC31CCc2c(C)cccc21` (configuration not stated), the TGI with SN12C renal was > 46.4 µM; in the experiment on NCI-H522 lung, > 31.6 µM; in the experiment on UACC-62 melanoma, > 46.4 µM; with KM12 colon, > 100 µM; in the experiment on SK-MEL-2 melanoma it was > 46.4 µM; in the experiment on HS 578T breast it was > 100 µM. The TGI in the experiment on LOX IMVI melanoma was > 46.4 µM; with LXFL 529 NSCLC, > 31.6 µM; with A549 NSCLC, > 46.4 µM; in the experiment with DMS 273 small cell lung it was > 31.6 µM.

As to `COC(=O)c1nn(C(=N)c2ccc(Cl)cc2)c2c1CCCCC2`, the TGI in the experiment with SN12C renal, in the experiment with NCI-H522 lung, with UACC-62 melanoma, in the experiment on KM12 colon, in the experiment on SK-MEL-2 melanoma and in the experiment on LOX IMVI melanoma was > 100 µM in each case. The TGI in the experiment with LXFL 529 NSCLC, in the experiment with A549 NSCLC and in the experiment with DMS 273 small cell lung was > 100 µM throughout.

In the case of `N[C@H](C(=O)O)[C@@H](Cl)CC(=O)O`, the TGI in the experiment on SN12C renal, in the experiment with NCI-H522 lung, in the experiment on UACC-62 melanoma, in the experiment with KM12 colon, in the experiment on SK-MEL-2 melanoma and in the experiment on LOX IMVI melanoma was > 100 µM each time. Further, the TGI in the experiment on LXFL 529 NSCLC, with A549 NSCLC and in the experiment with DMS 273 small cell lung was > 100 µM each time.

In the case of `CNC(C)Cc1ccc(O)cc1` (configuration not stated), the TGI in the experiment with SN12C renal, with NCI-H522 lung, with UACC-62 melanoma, in the experiment with KM12 colon, in the experiment with SK-MEL-2 melanoma and in the experiment with LOX IMVI melanoma was > 100 µM in each case. Besides, the TGI with LXFL 529 NSCLC, in the experiment on A549 NSCLC and with DMS 273 small cell lung was > 100 µM in each case.

`C/C=C/C(=O)[O-].N.N.N.N.N.[Co+3].[O-][Cl+3]([O-])([O-])[O-]`: the GI50 in the experiment on SN12C renal, in the experiment on NCI-H522 lung, in the experiment with UACC-62 melanoma, in the experiment on KM12 colon, with SK-MEL-2 melanoma and in the experiment with LOX IMVI melanoma was > 100 µM each time. The GI50 with LXFL 529 NSCLC, in the experiment on A549 NSCLC and in the experiment on DMS 273 small cell lung was > 100 µM in each case. Moreover, the TGI in the experiment on SN12C renal, in the experiment with NCI-H522 lung, in the experiment on UACC-62 melanoma, in the experiment with KM12 colon, in the experiment on SK-MEL-2 melanoma and in the experiment on LOX IMVI melanoma was > 100 µM throughout. Besides, the TGI with LXFL 529 NSCLC, with A549 NSCLC and in the experiment on DMS 273 small cell lung was > 100 µM throughout.

`O=c1cccccc1NCCNc1cccccc1=O`: the TGI is 27.9 µM in the experiment with SN12C renal; > 100 µM with NCI-H522 lung; > 100 µM in the experiment with UACC-62 melanoma; > 100 µM in the experiment with KM12 colon; > 100 µM in the experiment with SK-MEL-2 melanoma; > 100 µM with LOX IMVI melanoma. Also, the TGI in the experiment with LXFL 529 NSCLC, in the experiment on A549 NSCLC and in the experiment with DMS 273 small cell lung was > 100 µM in each case.

Regarding `Cc1ccc(SCC(O)=C2C(=O)CCCC2=O)cc1`, the TGI with SN12C renal, in the experiment with NCI-H522 lung, in the experiment on UACC-62 melanoma, with KM12 colon, with SK-MEL-2 melanoma and with LOX IMVI melanoma was > 100 µM each time. Moreover, the TGI in the experiment on LXFL 529 NSCLC, in the experiment with A549 NSCLC and in the experiment on DMS 273 small cell lung was > 100 µM each time.

In the case of `CC(=O)OCC(OC(C)=O)C(OC(C)=O)C(OC(C)=O)C(=O)CNn1c(-c2ccccc2Cl)nc2ccc(Br)cc2c1=O` (configuration not stated), the TGI with SN12C renal, in the experiment on NCI-H522 lung, with UACC-62 melanoma, in the experiment with KM12 colon, in the experiment on SK-MEL-2 melanoma and in the experiment with LOX IMVI melanoma was > 100 µM throughout. The TGI in the experiment on LXFL 529 NSCLC, with A549 NSCLC and with DMS 273 small cell lung was > 100 µM throughout.

As for `O=C(Nc1ccccc1C(=O)O)C(=O)C(C(=O)c1ccccc1-c1ccccc1)C1OC(=O)c2ccccc21` (configuration not stated), the TGI is 39.1 µM in the experiment on SN12C renal; 30.6 µM in the experiment with NCI-H522 lung; 35.7 µM with UACC-62 melanoma; 33.6 µM in the experiment on KM12 colon; > 100 µM with SK-MEL-2 melanoma; 38.3 µM in the experiment with LOX IMVI melanoma. The TGI turned out to be 28 µM in the experiment on LXFL 529 NSCLC, 81.9 µM in the experiment with A549 NSCLC and 95.3 µM in the experiment on DMS 273 small cell lung.

For the compound `O=C(O)c1oc2cccc3c2c1CCC3`, the TGI with SN12C renal, in the experiment on NCI-H522 lung, in the experiment with UACC-62 melanoma, with KM12 colon, in the experiment on SK-MEL-2 melanoma and with LOX IMVI melanoma was > 100 µM in each case. Also, the TGI in the experiment on LXFL 529 NSCLC, in the experiment on A549 NSCLC and in the experiment with DMS 273 small cell lung was > 100 µM throughout.
